Measured values: ChEMBL document CHEMBL1123483, “Inhibition of chicken liver dihydrofolate reductase by 5-(substituted benzyl)-2,4-diaminopyrimidines. A quantitative structure-activity relationship and graphics analysis” (J Med Chem, 1986)

Experiment: Partition coefficient (logD) (aqueous phase 0.1 N HCl)
Type: physicochemical
[1] = 0.1 N HCl (aqueous phase), read-out: logD

Row | Structure (SMILES) | logD [1] | logD (octanol/water)
1 | COc1ccc(Cc2cnc(N)nc2N)cc1 | 1.34 | –
2 | Nc1ccc(Cc2cnc(N)nc2N)cc1 | 0.26 | –
3 | Nc1ncc(Cc2ccc3c(c2)OCO3)c(N)n1 | 1.52 | –
4 | CCCCCCCCOc1cc(Cc2cnc(N)nc2N)ccc1OC | 2.55 | –
5 | C=C(C)c1c(OC)cc(Cc2cnc(N)nc2N)cc1OC | 3.07 | –
6 | CCOc1cc(Cc2cnc(N)nc2N)cc(OCC)c1 | 2.52 | –
7 | COc1cc(Cc2cnc(N)nc2N)cc(OC)c1N(C)C [ADITOPRIM] | 1.51 | –
8 | COc1cc(Cc2cnc(N)nc2N)cc(OC)c1SC [METIOPRIM] | 1.6 | –
9 | COCCOc1c(OC)cc(Cc2cnc(N)nc2N)cc1OC [TETROXOPRIM] | -1.81 | –

More lines, now with the values ahead:

Row | logD [1] | logD (octanol/water) | Structure (SMILES)
10 | 1.6 | – | COc1cc(Cc2cnc(N)nc2N)cc(OC)c1
11 | -1.33 | – | COCCOc1cccc(Cc2cnc(N)nc2N)c1
12 | – | -1.89 | COCCOc1ccc(Cc2cnc(N)nc2N)cc1OCCOC
13 | 1.55 | – | CCc1cc(Cc2cnc(N)nc2N)cc(CC)c1CC
14 | 2.04 | – | COc1cc(Cc2cnc(N)nc2N)cc(OC)c1Br [BRODIMOPRIM]
15 | 1 | – | COc1ccc(Cc2cnc(N)nc2N)cc1OC [DIAVERIDINE]
